In paper PMC6089664 (Clinical pharmacology and therapeutics, 2017):
Like-named read-outs stand apart in the source and are kept apart here.

Legend:
25-gene IFN score = experiment: Correlation of AUC24,SS with whole blood 25-gene IFN score; assay type: in vivo, human; conditions: subset (5) of CANDLE patients
[1] = Population pharmacokinetic; assay type: in vivo, human; conditions: for AUC24,SS/Dose: AUC24,SS/total daily dose
serum IP-10 = experiment: Correlation of AUC24,SS with serum CXCL10/IP-10 levels; assay type: in vivo, human; conditions: 189 observations in 18 patients, linear mixed model, p-value for slope 0.0002
[2] = cited from earlier work
[3] = popPK final model, 18 patients, oral
[4] = 18 patients, 54 patient-years of exposure

Q: Which results are given for `CCS(=O)(=O)N1CC(CC#N)(n2cc(-c3ncnc4[nH]ccc34)cn2)C1` [baricitinib, Baricitinib]?
A: AUC24,SS at which CANDLE patients normalized their IFN scores (25-gene IFN score): 1500 to 2000 nM·h; projected initial exposure (AUC24,SS) with proposed starting dose ([1]; 20–40kg, eGFR ≥120 mL/min/1.73 m^2, initial dose 6 mg/day BID): 1077 to 2688 nM·h; projected initial exposure (AUC24,SS) with proposed starting dose ([1]; <20kg, eGFR ≥120 mL/min/1.73 m^2, initial dose 6 mg/day TID): 1769 to 2112 nM·h; projected initial exposure (AUC24,SS) with proposed starting dose ([1]; >40kg, eGFR ≥120 mL/min/1.73 m^2, initial dose 8 mg/day BID): 1082 to 1958 nM·h; Covariate effect of GFR on Clearance, parameter for GFR-CL (%SEE) ([1]; CL/Ftypical=9.74×(eGFR/146.82)^0.444): 0.444 (24.8%); Covariate effect of Weight on V/F, parameter for WTV-V (%SEE) ([1]; V/Ftypical = 67.1 × e^0.0192·(WTV−27.2)): 0.0192 (15.0%); geometric mean AUC24,SS at clinically effective doses ([1]; all patients, final PK assessments): ~ 2388 nM*h; dose proportionality of PK ([1]; dosing range of 1–14 mg daily): dose linearity; AUC24,SS/Dose ([1]; eGFR ≥120 ml/min/1.73 m^2, 20–40kg (n=5), geometric mean (%CV)): 292 nM·h/mg; AUC24,SS/Dose ([1]; eGFR ≥120 ml/min/1.73 m^2, <20kg (n=2), geometric mean (%CV)): 322 nM·h/mg; AUC24,SS/Dose ([1]; eGFR ≥120 ml/min/1.73 m^2, >40kg (n=5), geometric mean (%CV)): 193 nM·h/mg; AUC ([1]; human, plasma, oral, 6 mg/day, AUC24,SS, eGFR <120 ml/min/1.73 m^2, <20kg (n=2), final PK visit, geometric mean (%CV)): 3.08 µM·h; CL/F ([1]; human, plasma, oral, 6.9 mg/day): 5.33 mL/min/kg; half-life ([1]; human, plasma, oral, 6.9 mg/day, t1/2, eGFR ≥120 ml/min/1.73 m^2, 20–40kg (n=5), final PK visit, geometric mean (%CV)): 5 h; CL/F ([1]; human, plasma, oral, 8 mg/day): 9.33 mL/min/kg; AUC ([1]; human, plasma, oral, 8 mg/day, AUC24,SS, eGFR ≥120 ml/min/1.73 m^2, <20kg (n=2), final PK visit, geometric mean (%CV)): 2.58 µM·h; Cmax ([1]; human, plasma, oral, 8 mg/day, eGFR ≥120 ml/min/1.73 m^2, <20kg (n=2), final PK visit, geometric mean (%CV)): 171 nM; half-life ([1]; human, plasma, oral, 8 mg/day, t1/2, eGFR ≥120 ml/min/1.73 m^2, <20kg (n=2), final PK visit, geometric mean (%CV)): 4.4 h; half-life ([1]; human, plasma, oral, 10 mg/day, t1/2, eGFR ≥120 ml/min/1.73 m^2, >40kg (n=5), final PK visit, geometric mean (%CV)): 7 h; AUC ([1]; human, plasma, oral, AUC24,SS, eGFR <120 ml/min/1.73 m^2, >40kg (n=3), final PK visit, geometric mean (%CV)): 2.53 µM·h; AUC ([1]; human, plasma, oral, AUC24,SS, eGFR ≥120 ml/min/1.73 m^2, 20–40kg (n=5), final PK visit, geometric mean (%CV)): 2.02 µM·h; AUC ([1]; human, plasma, oral, AUC24,SS, eGFR ≥120 ml/min/1.73 m^2, >40kg (n=5), final PK visit, geometric mean (%CV)): 1.94 µM·h; Cmax ([1]; human, plasma, oral, eGFR <120 ml/min/1.73 m^2, <20kg (n=2), final PK visit, geometric mean (%CV)): 229 nM; Cmax ([1]; human, plasma, oral, eGFR <120 ml/min/1.73 m^2, >40kg (n=3), final PK visit, geometric mean (%CV)): 180 nM; Cmax ([1]; human, plasma, oral, eGFR ≥120 ml/min/1.73 m^2, 20–40kg (n=5), final PK visit, geometric mean (%CV)): 150 nM; Cmax ([1]; human, plasma, oral, eGFR ≥120 ml/min/1.73 m^2, >40kg (n=5), final PK visit, geometric mean (%CV)): 136 nM; half-life ([1]; human, plasma, oral, estimated half-life, patient O3, >40 kg, eGFR 54–76 mL/min/1.73 m^2): 17 to 19.2 h; AUC ([1]; human, plasma, oral, geometric mean AUC24,SS at clinically effective doses, all patients, final PK assessments): 2.39 µM·h; half-life ([1]; human, plasma, oral, t1/2, eGFR <120 ml/min/1.73 m^2, <20kg (n=2), final PK visit, geometric mean (%CV)): 4.8 h; half-life ([1]; human, plasma, oral, t1/2, eGFR <120 ml/min/1.73 m^2, >40kg (n=3), final PK visit, geometric mean (%CV)): 7.8 h; Vd/F ([1]; human, plasma, po): 67.1 L; Absorption duration D1, population estimate (%SEE) [1, 3]: 0.971 (14.8%) hr; Apparent Clearance CL/F, population estimate (%SEE) [1, 3]: 9.74 (9.57%) L/hr; patients who developed BK viremia [4]: 44%; patients with Herpes Zoster [4]: 1 patient; deaths during the program (mean exposure 35.4 months): No deaths; most frequently reported TEAEs (over 54 patient-years): Upper respiratory tract infection; slope of correlation of AUC24,SS with serum IP-10 levels (serum IP-10): −0.197; half-life ([2]; RA population): 12.5 h; half-life ([2]; healthy adult subjects): 10 h; effect of renal impairment on Cmax ([2]; moderate and severe renal impairment, ref data on file, Eli Lilly and Company): minimal effect; half-life ([2]; psoriasis patients): 12.8 h
